Key:
Type in all cases: in vivo, human
[1] = Day 6 plasma concentrations of darifenacin, four-way crossover study in healthy male subjects; settings: 7.5 mg tid immediate release capsule vs 20 mg SR od matrix tablet, healthy volunteers
irritable bowel syndrome [2] = test: Clinical Study 3, immediate release darifenacin three times daily vs placebo in irritable bowel syndrome; settings: for Constipation % of patients reporting AEs corrected for placebo / Dry Mouth % of patients reporting AEs corrected for placebo / Global Rating % Reduction from baseline corrected for placebo / Loose Stool % Reduction from baseline corrected for placebo / Pain Score % Reduction from baseline corrected for placebo / Total AE % of patients reporting AEs corrected for placebo / Urgency % Reduction from baseline corrected for placebo / Vision % of patients reporting AEs corrected for placebo / Constipation % of patients reporting AEs / Dry Mouth % of patients reporting AEs / Global Rating % Reduction from baseline / Loose Stool % Reduction from baseline / Pain Score % Reduction from baseline / Total AE % of patients reporting AEs / Urgency % Reduction from baseline / Vision % of patients reporting AEs: Clinical Study 3, 12 weeks; for Constipation % of patients reporting AEs / Dry Mouth % of patients reporting AEs / Global Rating % Reduction from baseline / Loose Stool % Reduction from baseline / Pain Score % Reduction from baseline / Total AE % of patients reporting AEs / Urgency % Reduction from baseline / Vision % of patients reporting AEs: uncorrected
From the text: (§1) The invention may be illustrated by the following clinical studies wherein the treatment of irritable bowel syndrome using darifenacin administered as a once-daily controlled (slow) release formulation in accordance with the prior art is compared with treatment using darifenacin administered as a thrice daily immediate release formulation in accordance with the present invention. Specifically, Clinical Studies 1 and 2 used controlled (slow) release formulations of darifenacin administered once daily (od) and Clinical Study 3 used an immediate release formulation of darifenacin administered three times daily (tid).
(§2) During each clinical study, four efficacy measures of irritable bowel syndrome severity were measured, viz. ‘Pain Score’ (Average daily pain score, a composite of severity and number of days of pain), ‘Loose Stool’ (Number of days on which loose or watery stool occurred), ‘Urgency’ (Number of days on which urgency occured) and so-called ‘Global Rating’ (Patient rating of their condition taking into account all symptoms, 0=no problems). Adverse events (AE) such as constipation, dry mouth and visual abnormalities were also recorded.
Clinical Study 3 was a multi-centre, double-blind, randomised, placebo-controlled parallel group study in which three dose strengths of darifenacin 1.25, 2.5 and 5 mg dosed tid were compared with placebo. Treatment lasted 12 weeks following a 2-week run-in period.
The immediate release dosage forms of darifenacin used in Clinical Study 3 were 1.25 mg, 2.5 mg and 5.0 mg capsules having the following compositions in a Size 3 capsule shell: […]

irritable bowel syndrome [3] = test: Clinical Study 1, controlled (slow) release darifenacin once daily vs placebo in irritable bowel syndrome; settings: for Constipation % of patients reporting AEs corrected for placebo / Dry Mouth % of patients reporting AEs corrected for placebo / Global Rating % Reduction from baseline corrected for placebo / Loose Stool % Reduction from baseline corrected for placebo / Pain Score % Reduction from baseline corrected for placebo / Total AE % of patients reporting AEs corrected for placebo / Urgency % Reduction from baseline corrected for placebo / Vision % of patients reporting AEs corrected for placebo / Constipation % of patients reporting AEs / Dry Mouth % of patients reporting AEs / Global Rating % Reduction from baseline / Loose Stool % Reduction from baseline / Pain Score % Reduction from baseline / Total AE % of patients reporting AEs / Urgency % Reduction from baseline / Vision % of patients reporting AEs: Clinical Study 1, 12 weeks; for Constipation % of patients reporting AEs / Dry Mouth % of patients reporting AEs / Global Rating % Reduction from baseline / Loose Stool % Reduction from baseline / Pain Score % Reduction from baseline / Total AE % of patients reporting AEs / Urgency % Reduction from baseline / Vision % of patients reporting AEs: uncorrected
From the text: as §1, §2
Clinical Study 1 was a multi-centre, double-blind, randomised, placebo-controlled parallel group study in which three dose strengths of darifenacin of 3.75 mg, 7.5 mg and 15 mg dosed od were compared with placebo. Treatment lasted 12 weeks following a 2-week run-in period.
The controlled (slow) release dosage forms of darifenacin used in Clinical Studies 1 and 2 were 3.75 mg, 7.5 mg, 15.0 mg and 30.0 mg tablets having the following compositions: […]

[4] = immediate release capsule 3 × 1.25 mg (tid)
[5] = immediate release capsule 3 × 2.5 mg (tid)
[6] = immediate release capsule 3 × 5.0 mg (tid)
[7] = controlled release tablet 3.75 mg od
[8] = controlled release tablet 7.5 mg od
[9] = controlled release tablet 15 mg od
[10] = both controlled release od studies (Clinical Studies 1 and 2)

## NC(=O)C(c1ccccc1)(c1ccccc1)[C@@H]1CCN(CCc2ccc3c(c2)CCO3)C1 [darifenacin]
[1]
  darifenacin plasma concentration (FIG. 1): periodic ‘peaking’ of the darifenacin plasma concentration above that of the controlled release curve
Irritable bowel syndrome [2]; [4]
  Constipation % of patients reporting AEs corrected for placebo: 3.4%
  Dry Mouth % of patients reporting AEs corrected for placebo: 0.3%
  Global Rating % Reduction from baseline corrected for placebo: 9%
  Loose Stool % Reduction from baseline corrected for placebo: 8%
  Pain Score % Reduction from baseline corrected for placebo: 10%
  Total AE % of patients reporting AEs corrected for placebo: −4%
  Urgency % Reduction from baseline corrected for placebo: 11%
  Vision % of patients reporting AEs corrected for placebo: −2.2%
  Constipation % of patients reporting AEs: 6.3%
  Dry Mouth % of patients reporting AEs: 16%
  Global Rating % Reduction from baseline: 27%
  Loose Stool % Reduction from baseline: 16%
  Pain Score % Reduction from baseline: 33%
  Total AE % of patients reporting AEs: 36%
  Urgency % Reduction from baseline: 36%
  Vision % of patients reporting AEs: 1.4%
Irritable bowel syndrome [2]; [5]
  Constipation % of patients reporting AEs corrected for placebo: 5.6%
  Dry Mouth % of patients reporting AEs corrected for placebo: 8.8%
  Global Rating % Reduction from baseline corrected for placebo: 11%
  Loose Stool % Reduction from baseline corrected for placebo: 22%
  Pain Score % Reduction from baseline corrected for placebo: 17%
  Total AE % of patients reporting AEs corrected for placebo: −3%
  Urgency % Reduction from baseline corrected for placebo: 17%
  Vision % of patients reporting AEs corrected for placebo: −0.1%
  Constipation % of patients reporting AEs: 5.6%
  Dry Mouth % of patients reporting AEs: 24.5%
  Global Rating % Reduction from baseline: 29%
  Loose Stool % Reduction from baseline: 30%
  Pain Score % Reduction from baseline: 40%
  Total AE % of patients reporting AEs: 37%
  Urgency % Reduction from baseline: 42%
  Vision % of patients reporting AEs: 3.5%
Irritable bowel syndrome [2]; [6]
  Constipation % of patients reporting AEs corrected for placebo: 8.4%
  Dry Mouth % of patients reporting AEs corrected for placebo: 33.9%
  Global Rating % Reduction from baseline corrected for placebo: 14%
  Loose Stool % Reduction from baseline corrected for placebo: 44%
  Pain Score % Reduction from baseline corrected for placebo: 13%
  Total AE % of patients reporting AEs corrected for placebo: 20%
  Urgency % Reduction from baseline corrected for placebo: 32%
  Vision % of patients reporting AEs corrected for placebo: 4.2%
  Constipation % of patients reporting AEs: 11.3%
  Dry Mouth % of patients reporting AEs: 49.6%
  Global Rating % Reduction from baseline: 32%
  Loose Stool % Reduction from baseline: 52%
  Pain Score % Reduction from baseline: 36%
  Total AE % of patients reporting AEs: 60%
  Urgency % Reduction from baseline: 57%
  Vision % of patients reporting AEs: 7.8%
Irritable bowel syndrome [2]; immediate release tid study, all three doses
  all four efficacy measures (Pain Score, Loose Stool, Urgency and Global Rating): marked improvements
Irritable bowel syndrome [3]; [7]
  Constipation % of patients reporting AEs corrected for placebo: 1.4%
  Dry Mouth % of patients reporting AEs corrected for placebo: 2.5%
  Global Rating % Reduction from baseline corrected for placebo: −2%
  Loose Stool % Reduction from baseline corrected for placebo: 4%
  Pain Score % Reduction from baseline corrected for placebo: −3%
  Total AE % of patients reporting AEs corrected for placebo: 2%
  Urgency % Reduction from baseline corrected for placebo: 18%
  Vision % of patients reporting AEs corrected for placebo: 5.4%
  Constipation % of patients reporting AEs: 7.2%
  Dry Mouth % of patients reporting AEs: 10.2%
  Global Rating % Reduction from baseline: 27%
  Loose Stool % Reduction from baseline: 37%
  Pain Score % Reduction from baseline: 35%
  Total AE % of patients reporting AEs: 27%
  Urgency % Reduction from baseline: 41%
  Vision % of patients reporting AEs: 5.4%
Irritable bowel syndrome [3]; [8]
  Constipation % of patients reporting AEs corrected for placebo: 4.7%
  Dry Mouth % of patients reporting AEs corrected for placebo: 6.5%
  Global Rating % Reduction from baseline corrected for placebo: 0%
  Loose Stool % Reduction from baseline corrected for placebo: 4%
  Pain Score % Reduction from baseline corrected for placebo: 5%
  Total AE % of patients reporting AEs corrected for placebo: 3%
  Urgency % Reduction from baseline corrected for placebo: 17%
  Vision % of patients reporting AEs corrected for placebo: 4.3%
  Constipation % of patients reporting AEs: 10.5%
  Dry Mouth % of patients reporting AEs: 14.2%
  Global Rating % Reduction from baseline: 29%
  Loose Stool % Reduction from baseline: 37%
  Pain Score % Reduction from baseline: 43%
  Total AE % of patients reporting AEs: 28%
  Urgency % Reduction from baseline: 40%
  Vision % of patients reporting AEs: 4.3%
Irritable bowel syndrome [3]; [9]
  Constipation % of patients reporting AEs corrected for placebo: 9.4%
  Dry Mouth % of patients reporting AEs corrected for placebo: 20.8%
  Global Rating % Reduction from baseline corrected for placebo: 2%
  Loose Stool % Reduction from baseline corrected for placebo: 14%
  Pain Score % Reduction from baseline corrected for placebo: 1%
  Total AE % of patients reporting AEs corrected for placebo: 15%
  Urgency % Reduction from baseline corrected for placebo: 27%
  Vision % of patients reporting AEs corrected for placebo: 3.3%
  Constipation % of patients reporting AEs: 15.2%
  Dry Mouth % of patients reporting AEs: 28.5%
  Global Rating % Reduction from baseline: 31%
  Loose Stool % Reduction from baseline: 47%
  Pain Score % Reduction from baseline: 39%
  Total AE % of patients reporting AEs: 40%
  Urgency % Reduction from baseline: 50%
  Vision % of patients reporting AEs: 3.3%
Irritable bowel syndrome [3]; [10]
  key measures of Pain Score and Global Rating: no effects were seen
  number of adverse effects: marked increase with dose
Irritable bowel syndrome [3]; both controlled release od studies (Clinical Studies 1 and 2), higher doses
  efficacy measures of Loose Stool and Urgency: improvements

From patent US6653339B2, “Method of treating irritable bowel syndrome” (Pfizer Inc., priority 2001, dated 2003)
